Reference: patent publication US20100069366A1, “ANTIBACTERIAL QUINOLINE DERIVATIVES” (JANSSEN-CILAG, priority 2006, published 2010)
Values after ≈ are worked out from the molar mass of the structure shown.

Legend:
[1] = test system: Staphylococcus aureus (ATCC29213); assay: Microtitre plate assay, IC90 determination, STA 29213; format: cell-based; conditions: Staphylococcus aureus ATCC29213, 90% inhibitory concentration for bacterial growth, resazurin
Experimental: (§1) The bacteria used in this study were grown overnight in flasks containing 100 ml Mueller-Hinton Broth (Becton Dickinson—cat. no. 275730) in sterile de-ionized water, with shaking, at 37° C. Stocks (0.5 ml/tube) were stored at −70° C. until use. Bacteria titrations were performed in microtiter plates to detect the TCID50, in which the TCID50 represents the dilution that gives rise to bacterial growth in 50% of inoculated cultures.
(§2) In general, an inoculum level of approximately 100 TCID50 was used for susceptibility testing.
(§3) Flat-bottom, sterile 96-well plastic microtiter plates were filled with 180 μl of sterile deionized water, supplemented with 0.25% BSA. Subsequently, stock solutions (7.8× final test concentration) of compounds were added in 45 μl volumes in column 2 Serial five-fold dilutions (45 μl in […]) were made directly in the microtiter plates from column 2 to reach column 11. Untreated control samples with (column 1) and without (column 12) inoculum were included in each microtiter plate. Depending on the bacteria type, approximately 10 to 60 CFU per well of bacteria inoculum (100 TCID50), in a volume of 100 μl in 2.8× Mueller-Hinton broth medium, was added to the rows A to H, except column 12. The same volume of broth medium without inoculum was added to column 12 in row A to H. The cultures were incubated at 37° C. for 24 hours under a normal atmosphere (incubator with open air valve and continuous ventilation). At the end of incubation, one day after inoculation, the bacterial growth was quantitated fluorometrically. Therefore resazurin (0.6 mg/ml) was added in a volume of 20 μl to all wells 3 hours after inoculation, and the plates were re-incubated overnight. A change in colour from blue to pink indicated the growth of bacteria. The fluorescence was read in a computer-controlled fluorometer (Cytofluor Biosearch) at an excitation wavelength of 530 nm and an emission wavelength of 590 nm. The % growth inhibition achieved by the compounds was calculated according to standard methods.

[2] = test system: Streptococcus pneumoniae (ATCC6305); assay: Microtitre plate assay, IC90 determination, SPN 6305; format: cell-based; conditions: Streptococcus pneumoniae ATCC6305, 90% inhibitory concentration for bacterial growth, resazurin
Experimental: as §1, §2, §3

M. Smegmatis ATCC607 = assay: In-vitro anti-bacterial activity against strain M. smegmatis ATCC607; format: cell-based; conditions: 90% inhibitory concentration for bacterial growth, 48 hours, Alamar Blue fluorescence
Experimental: Flat-bottom, sterile 96-well plastic microtiter plates were filled with 180 μl of sterile deionized water, supplemented with 0.25% BSA. Subsequently, stock solutions (7.8× final test concentration) of compounds were added in 45 μl volumes to a series of duplicate wells in column 2 so as to allow evaluation of their effects on bacterial growth. Serial five-fold dilutions (45 μl in 180 μl) were made directly in the microtiter plates from column 2 to 11 using a customised robot system (Zymark Corp., Hopkinton, Mass.). Pipette tips were changed after every 3 dilutions to minimize pipetting errors with high hydrophobic compounds. Untreated control samples with (column 1) and without (column 12) inoculum were included in each microtiter plate. Approximately 250 CFU per well of bacteria inoculum, in a volume of 100 μl in 2.8× Mueller-Hinton broth medium, was added to the rows A to H, except column 12. The same volume of broth medium without inoculum was added to column 12 in row A to H. The cultures were incubated at 37° C. for 48 hours in a humidified 5% CO2 atmosphere (incubator with open air valve and continuous ventilation). At the end of incubation, two days after inoculation, the bacterial growth was quantitated fluorometrically. Therefore Alamar Blue (10×) was added to all wells in a volume of 20 μl and plates were incubated for another 2 hours at […]
The fluorescence was read in a computer-controlled fluorometer (Cytofluor, Biosearch) at an excitation wavelength of 530 nm and an emission wavelength of 590 nm (gain 30).

[3] = test system: Pseudomonas aeruginosa (ATCC27853); assay: Microtitre plate assay, IC90 determination, PAE 27853; format: cell-based; conditions: Pseudomonas aeruginosa ATCC27853; 90% inhibitory concentration for bacterial growth; resazurin
Experimental: as §1, §2, §3

[4] = test system: Streptococcus pyogens (ATCC8668); assay: Microtitre plate assay, IC90 determination, SPY 8668; format: cell-based; conditions: Streptococcus pyogens ATCC8668; 90% inhibitory concentration for bacterial growth; resazurin
Experimental: as §1, §2, §3

[5] = test system: Staphylococcus aureus (ATCC25923); assay: Microtitre plate assay, IC90 determination, STA 25923; format: cell-based; conditions: Staphylococcus aureus ATCC25923; 90% inhibitory concentration for bacterial growth; resazurin
Experimental: as §1, §2, §3

[6] = test system: Enterococcus faecalis (ATCC29212); assay: Microtitre plate assay, IC90 determination, EFA 29212; format: cell-based; conditions: Enterococcus faecalis ATCC29212; 90% inhibitory concentration for bacterial growth; resazurin
Experimental: as §1, §2, §3

[7] = test system: methicilline resistant Staphylococcus aureus (MRSA) (a clinical isolate from the University of Antwerp); assay: Microtitre plate assay, IC90 determination, STA RMETH; format: cell-based; conditions: 90% inhibitory concentration for bacterial growth, resazurin
Experimental: as §1, §2, §3

SMILES | IC90 ([1]; read-out: IC90 (μg/ml) STA 29213) [µg/mL] | IC90 ([2]; read-out: IC90 (μg/ml) SPN 6305) [µg/mL] | melting point [°C] | IC90 (M. Smegmatis ATCC607; Mycolicibacterium smegmatis, ATCC607, read-out: M. smegmatis IC90) [µg/mL] | IC90 (μg/ml) PAE 27853 [3] [µg/mL] | IC90 (μg/ml) STA 29213 [1] [µg/mL] | IC90 (μg/ml) SPY 8668 [4] [µg/mL] | IC90 (μg/ml) SPN 6305 [2] [µg/mL] | IC90 (μg/ml) STA 25923 [5] [µg/mL] | M. smegmatis IC90 (M. Smegmatis ATCC607) [µg/mL] | IC90 (μg/ml) EFA 29212 [6] [µg/mL] | IC90 (μg/ml) STA RMETH [7] [µg/mL]
COc1nc2ccc(Br)cc2cc1C(/C(=C/CN(C)C)CCc1ccccc1)c1ccccc1 (stereo not drawn) [Compound 8] | 8.17 (≈ 15.8 µM) | 2.05 (≈ 3.98 µM) | 128 | 1.63 (≈ 3.16 µM) |  |  |  |  |  |  |  | 
COc1nc2ccc(Br)cc2cc1C(=C(CCN(C)C)c1ccccc1)c1ccccc1 [Compound 36] |  |  |  |  | 12.24 (≈ 25.1 µM) | 9.73 (≈ 20 µM) | 9.73 (≈ 20 µM) | 5.47 (≈ 11.2 µM) | 10.91 (≈ 22.4 µM) | 1.94 | 12.24 (≈ 25.1 µM) | 12.24 (≈ 25.1 µM)
